Each structure is given as a SMILES string. Like-named read-outs stand apart in the source and are kept apart here.

Format in all cases: cell-based
In one assay the target is T1, HCV NS5B S365A mutant (Hepatitis C virus genotype 1b, UniProt Q9WMX2, S2784A).
T1 construct: HCV NS5B C316Y or S365A mutant as indicated; expressed in transfected cells
Nature of the assay: Activity against HCV NS5B S365A mutant. Particulars: for EC50: read-out: Inhibiton of HCV NS5B S365A mutant. The method, then: (§1) The biological activity against HCV 1b, 1a, or 2a is indicated as being *, **, ***, or ****, which corresponds to EC50 ranges of EC50>1000 nM, 100 nM<EC50≦1000 nM, 10 nM<EC50≦100 nM, or EC50≦10 nM, respectively. The biological activity against HCV NS5B C316Y or S365A mutant is indicated as being †, ††, or \\\, which corresponds to EC50 ranges of EC50>1000 nM, 200 nM<EC50≦1000 nM, […], respectively.

The target in another assay is T2, HCV NS5B C316Y mutant (Hepatitis C virus genotype 1b, UniProt Q9WMX2, C2735Y).
T2 construct: HCV NS5B C316Y or S365A mutant as indicated; expressed in transfected cells
T2 sequence (Q9WMX2 2420-3010 C2735Y): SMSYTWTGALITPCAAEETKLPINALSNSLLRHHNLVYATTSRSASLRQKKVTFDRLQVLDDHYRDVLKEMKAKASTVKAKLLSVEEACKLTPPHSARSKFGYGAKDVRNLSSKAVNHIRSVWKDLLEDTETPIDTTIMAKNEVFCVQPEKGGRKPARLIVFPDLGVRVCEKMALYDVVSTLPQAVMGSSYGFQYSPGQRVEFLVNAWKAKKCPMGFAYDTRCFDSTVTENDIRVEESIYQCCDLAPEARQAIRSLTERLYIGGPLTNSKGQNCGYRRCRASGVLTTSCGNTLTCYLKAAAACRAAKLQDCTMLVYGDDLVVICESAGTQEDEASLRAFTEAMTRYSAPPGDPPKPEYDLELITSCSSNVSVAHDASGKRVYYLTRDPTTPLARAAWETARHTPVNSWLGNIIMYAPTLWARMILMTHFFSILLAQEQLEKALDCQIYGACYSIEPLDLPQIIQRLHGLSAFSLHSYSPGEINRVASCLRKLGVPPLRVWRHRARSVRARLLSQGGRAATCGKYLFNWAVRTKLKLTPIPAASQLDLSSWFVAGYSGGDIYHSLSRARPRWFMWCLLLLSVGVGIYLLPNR
The experiment in a line: Activity against HCV NS5B C316Y mutant. Particulars: for EC50: read-out: Inhibiton of HCV NS5B C316Y mutant. The procedure: as §1

The test system of assay [1] is HCV 1b replication (bicistronic genotype 1b replicon in Huh 7 cells). Nature of the assay: HCV 1b replicon assay (1b_Huh-Luc/Neo-ET cell line, luciferase readout). The conditions noted are these: Hepatitis C virus, Huh-7. The method, then: Biological activity of the compounds of the invention was determined using an HCV replicon assay. The 1b_Huh-Luc/Neo-ET cell line persistently expressing a bicistronic genotype 1b replicon in Huh 7 cells was obtained from ReBLikon GMBH. This cell line was used to test compound inhibition using luciferase enzyme activity readout as a measurement of compound inhibition of replicon levels.
On Day 1 (the day after plating), each compound was added in triplicate to the cells. Plates were incubated for 72 hours prior to running the luciferase assay. Enzyme activity was measured using a Bright-Glo Kit (cat. number E2620) manufactured by Promega Corporation. The following equation was used to generate a percent control value for each compound. % Control=(Average Compound Value/Average Control)*100
The EC50 value was determined using GraphPad Prism and the following equation: Y=Bottom+(Top-Bottom)/(1+10^((Log IC50−X)*HillSlope))
EC50 values of compounds were repeated several times in the replicon assay.
On the technique in general: In antiviral work, replicon cells carry a viral genome segment that copies itself.

The next assay relates to HCV 2a. The experiment in a line: HCV 2a replicon assay (similar to the 1b replicon assay). The conditions noted are these: Hepatitis C virus; cell marked (HCV genotype 2a replicon); read-out: Inhibition of HCV genotype 2a replicon. The procedure:
(§2) Compounds of the invention can inhibit multiple genotypes of HCV selected but not limited to 1a, 1b, 2a, 3a, and 4a. The EC50s are measured in the corresponding replicon assays that are similar to HCV 1b replicon assay as described above.
as §1

The subject of the next assay is HCV 1a. The experiment in a line: HCV 1a replicon assay (similar to the 1b replicon assay). Particulars: Hepatitis C virus; cell marked (HCV genotype 1a replicon); read-out: Inhibition of HCV genotype 1a replicon. The method, then: as §2, §1
[2] abbreviates: numeric EC50, genotype 1b replicon, read-out: Inhibition of HCV genotype 1b replicon (EC50).
Where [3] appears, read: 1b_Huh-Luc/Neo-ET cell line, 72 hours, luciferase readout, read-out: EC50, concentration effective to produce a half-maximal inhibition of HCV 1b replication.
Setting [4] is: class symbols, genotype 1b replicon, read-out: Inhibition of HCV genotype 1b replicon.

T1 sequence (Q9WMX2 2420-3010 S2784A): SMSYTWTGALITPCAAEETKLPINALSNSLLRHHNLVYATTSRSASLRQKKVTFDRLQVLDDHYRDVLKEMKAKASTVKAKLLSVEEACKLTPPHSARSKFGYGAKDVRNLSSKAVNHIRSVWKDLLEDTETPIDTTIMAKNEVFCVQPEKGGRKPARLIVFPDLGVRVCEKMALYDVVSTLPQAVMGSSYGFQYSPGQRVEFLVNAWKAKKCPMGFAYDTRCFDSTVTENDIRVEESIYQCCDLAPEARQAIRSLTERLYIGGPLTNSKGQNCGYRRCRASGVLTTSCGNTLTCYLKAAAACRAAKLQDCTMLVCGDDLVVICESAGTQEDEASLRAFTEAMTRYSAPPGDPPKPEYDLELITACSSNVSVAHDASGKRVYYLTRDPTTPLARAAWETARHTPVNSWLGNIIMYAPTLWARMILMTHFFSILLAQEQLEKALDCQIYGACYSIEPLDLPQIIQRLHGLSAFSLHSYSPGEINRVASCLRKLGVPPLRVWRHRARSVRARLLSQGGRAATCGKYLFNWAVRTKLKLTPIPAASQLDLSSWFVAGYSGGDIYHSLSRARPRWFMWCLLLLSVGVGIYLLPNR

As to `CNC(=O)c1c(-c2ccc(F)cc2)oc2cc3c(cc12)[C@H](C)OC1(CC1)CN3S(C)(=O)=O` (single isomer, unassigned) [Compound B193], the EC50 on HCV NS5B S365A mutant and at HCV NS5B C316Y mutant was 200 to 1000 nM in each case.
As for `CNC(=O)c1c(-c2ccc(F)cc2)oc2cc3c(cc12)[C@H](C)OCCN3S(C)(=O)=O` [Compound B45], on HCV NS5B S365A mutant, the “Inhibiton of HCV NS5B S365A mutant” value is reported as “†††”. Also, in assay [1] (setting [2]), the EC50 is 3 nM. Moreover, at HCV NS5B C316Y mutant, the “Inhibiton of HCV NS5B C316Y mutant” value was “†††”.
Take `CNC(=O)c1c(-c2ccc(F)cc2)oc2cc3c(cc12)[C@H](C)OC(C)(C)CN3S(C)(=O)=O` (single isomer, unassigned) [Compound B184]: the EC50 at HCV NS5B S365A mutant was 200 to 1000 nM; on HCV NS5B C316Y mutant, over 1000 nM.
As for `CS(=O)(=O)N1CCCCc2cc3c(C(=O)NC4CC4)c(-c4ccc(F)cc4)oc3cc21` [Compound B41], in the assay with HCV 2a, the EC50 was over 1000 nM.
`CS(=O)(=O)N1CCCCc2cc3c(-c4ncc[nH]4)c(-c4ccc(F)cc4)oc3cc21` [Compound B67]: on HCV NS5B S365A mutant, the EC50 is 200 to 1000 nM.
Turning to `CC1c2cc3c(-c4ncc[nH]4)c(-c4ccc(F)cc4)oc3cc2N(S(C)(=O)=O)CCN1C` (stereo not shown) [Compound B171], the EC50 on HCV NS5B S365A mutant was 200 to 1000 nM.
Take `CNC(=O)c1c(-c2ccc(F)cc2)oc2cc3c(cc12)[C@H](C)CCCN3S(C)(=O)=O` (single isomer, unassigned) [Compound B15]: at HCV NS5B S365A mutant, the “Inhibiton of HCV NS5B S365A mutant” value is reported as “†††”. Further, the EC50 in assay [1] (setting [2]) came to 5.5 nM. Also, the “Inhibiton of HCV NS5B C316Y mutant” value on HCV NS5B C316Y mutant is given as “†††”.
For `CNC(=O)c1c(-c2ccc(F)cc2)oc2cc3c(cc12)[C@H](C)N(C)C(=O)CN3S(C)(=O)=O` (single isomer, unassigned) [Compound B179], the EC50 at HCV NS5B S365A mutant was 200 to 1000 nM.
On to `CS(=O)(=O)N1CCCCc2cc3c(C(N)=O)c(-c4ccc(F)cc4)oc3cc21` [Compound B13], for which, in the assay with HCV 2a, the EC50 is over 1000 nM.
With `CNC(=O)c1c(-c2ccc(F)cc2)nc2cc3c(cn12)C(C)=CCCN3S(C)(=O)=O` [Compound B62], the EC50 in the assay on HCV 2a is over 1000 nM.
As to `C=C1CCCCN(S(C)(=O)=O)c2cc3oc(-c4ccc(F)cc4)c(C(=O)NC)c3cc21` [Compound B75], the EC50 with HCV 2a was in the range of 100 to 1000 nM.
In the case of `CN(C)C(=O)c1c(-c2ccc(F)cc2)oc2cc3c(cc12)CCCCN3S(C)(=O)=O` [Compound B14], the EC50 in the assay on HCV 2a was over 1000 nM.
As for `CNC(=O)c1c(-c2ccc(Oc3ccc(F)cc3)cc2)oc2cc3c(cc12)[C@H](C)OC(C)(C)CN3S(C)(=O)=O` (single isomer, unassigned) [Compound B176], the EC50 on HCV NS5B S365A mutant and at HCV NS5B C316Y mutant was 200 to 1000 nM throughout.
Consider `CNC(=O)c1c(-c2ccc(F)cc2)oc2cc3c(cc12)C(C)N(CCO)CCN3S(C)(=O)=O` (stereo not shown) [Compound B145], for which the EC50 on HCV NS5B S365A mutant was in the range of 200 to 1000 nM.
As to `CNC(=O)c1c(-c2ccc(F)cc2)oc2cc3c(cc12)C=CCCN3S(C)(=O)=O` [Compound B12], the EC50 in the assay with HCV 2a is 100 to 1000 nM.
`C=C1CCCN(S(C)(=O)=O)c2cc3nc(-c4ccc(F)cc4)c(C(=O)NC)n3cc21` [Compound B61]: the EC50 in the assay on HCV 2a is over 1000 nM.
Consider `CN(C)CCNC(=O)c1c(-c2ccc(F)cc2)oc2cc3c(cc12)CCCCN3S(C)(=O)=O` [Compound B42], for which, in the assay on HCV 2a, the EC50 is over 1000 nM.
Take `CNC(=O)c1c(-c2ccc(F)cc2)oc2cc3c(cc12)[C@@H](C)OCCN3S(C)(=O)=O` [Compound B44]: in the assay with HCV 2a, the EC50 is 100 to 1000 nM.
For `CNC(=O)c1c(-c2ccc(Oc3ccc(F)cc3)cc2)oc2cc3c(cc12)[C@H](C)OC1(CC1)CN3S(C)(=O)=O` (single isomer, unassigned) [Compound B187], the EC50 on HCV NS5B S365A mutant and on HCV NS5B C316Y mutant was over 1000 nM each time.
In the case of `CNC(=O)c1c(-c2ccc(F)cc2)oc2cc3c(cc12)[C@H](C)O[C@H](COC[C@H](O)CO)CN3S(C)(=O)=O` [Compound B279], the EC50 in assay [1] (setting [3]) and in assay [1] (setting [4]) was 10 to 100 nM each time.
Take `CNC(=O)c1c(-c2ccc(F)cc2)oc2cc3c(cc12)C(=O)CCCN3S(C)(=O)=O` [Compound B7]: the EC50 in assay [1] (setting [3]) and in assay [1] (setting [4]) was 10 to 100 nM throughout.
On to `CS(=O)(=O)N1CCCCc2cc3c(C(=O)NCC#N)c(-c4ccc(F)cc4)oc3cc21` [Compound B43], for which, in the assay with HCV 2a, the EC50 was over 1000 nM.
Consider `CNC(=O)c1c(-c2ccc(F)cc2)oc2cc3c(cc12)/C=C\CCCN3S(C)(=O)=O` [Compound B114], for which the EC50 in the assay with HCV 1a is 100 to 1000 nM.
As for `CONC(=O)c1c(-c2ccc(F)cc2)oc2cc3c(cc12)CCCCN3S(C)(=O)=O` [Compound B18], the EC50 in assay [1] (setting [3]) and in assay [1] (setting [4]) was 10 to 100 nM in each case.
`CC1OCCN(S(C)(=O)=O)c2cc3oc(-c4ccc(F)cc4)c(-c4ncc[nH]4)c3cc21` (stereo not shown) [Compound B197]: at HCV NS5B S365A mutant, the EC50 fell in the range of 200 to 1000 nM.
`CNC(=O)c1c(-c2ccc(F)cc2)oc2cc3c(cc12)[C@H](C)O[C@H](COC(=O)[C@H](C)N)CN3S(C)(=O)=O` [Compound B249]: the EC50 was at most 10 nM in assay [1] (setting [3]) and under 10 nM in assay [1] (setting [4]).
The matching figures for `CNC(=O)c1c(-c2ccc(F)cc2)oc2cc3c(cc12)[C@H](C)O[C@H](COC(=O)C(C)(C)C)CN3S(C)(=O)=O` [Compound B261]: at most 10 nM and under 10 nM.
As for `CNC(=O)c1c(-c2ccc(F)cc2)oc2cc3c(cc12)[C@H](C)O[C@H](COC(=O)[C@@H](N)[C@@H](C)O)CN3S(C)(=O)=O` [Compound B280], the values for the EC50 in assay [1] (setting [3]) and in assay [1] (setting [4]) were at most 10 nM and under 10 nM, respectively.
As to `CNC(=O)c1c(-c2ccc(F)cc2)nn2cc3c(cc12)C(C)OC(CS(C)(=O)=O)CN3S(C)(=O)=O` (stereo not shown) [Compound B247], the results for the EC50 in assay [1] (setting [3]) and in assay [1] (setting [4]) were at most 10 nM and 10 to 100 nM, respectively.
On to `CNC(=O)c1c(-c2ccc(F)cc2)oc2cc3c(cc12)[C@H](C)O[C@H](COC(=O)CCC(=O)O)CN3S(C)(=O)=O` [Compound B262], for which the EC50 in assay [1] (setting [3]) and in assay [1] (setting [4]) was 10 to 100 nM throughout.
For `CN/C(=N\OC)c1c(-c2ccc(F)cc2)oc2cc3c(cc12)[C@H](C)O[C@H](CS(C)(=O)=O)CN3S(C)(=O)=O` [Compound B284], the EC50 in assay [1] (setting [4]) is 100 to 1000 nM.
For the compound `CNC(=O)c1c(-c2ccc(F)cc2)oc2cc3c(cc12)[C@H](C)O[C@H](COC(=O)CN(C)C)CN3S(C)(=O)=O` [Compound B252], the EC50 in assay [1] (setting [3]) was at most 10 nM; in assay [1] (setting [4]), under 10 nM.
As for `C=C1CCCN(S(C)(=O)=O)c2cc3oc(-c4ccccc4F)c(C(=O)NC)c3cc21` [Compound B31], the EC50 in assay [1] (setting [3]) and in assay [1] (setting [4]) was 10 to 100 nM in each case.
Take `CNC(=O)c1c(-c2ccc(Oc3ccc(F)cc3)cc2)oc2cc3c(cc12)[C@H](C)O[C@H](COC)CN3S(C)(=O)=O` [Compound B243]: the EC50 in assay [1] (setting [3]) is at most 10 nM; in assay [1] (setting [4]), under 10 nM.
The matching figures for `CNC(=O)c1c(-c2ccc(F)cc2)oc2cc3c(cc12)C1(CCCN3S(C)(=O)=O)CC1` [Compound B9]: 10 to 100 nM and 10 to 100 nM.
The corresponding values for `CNC(=O)c1c(-c2ccc(F)cc2)oc2cc3c(cc12)[C@H](C)O[C@H](COC(=O)COCCOCCOCCOCCOC)CN3S(C)(=O)=O` [Compound B259] are at most 10 nM and under 10 nM.
For the compound `CNC(=O)c1c(-c2ccc(F)cc2)oc2cc3c(cc12)[C@H](C)O[C@H](COC(=O)[C@@H](N)CC(C)C)CN3S(C)(=O)=O` [Compound B271], the EC50 in assay [1] (setting [3]) is at most 10 nM; in assay [1] (setting [4]) it was under 10 nM.
For the compound `CNC(=O)c1c(-c2ccc(F)cc2)oc2cc3c(cc12)[C@H](C)O[C@H](COCCOC)CN3S(C)(=O)=O` [Compound B267], the EC50 in assay [1] (setting [3]) was at most 10 nM; in assay [1] (setting [4]) it was under 10 nM.

(Values after US9085587B2, “Inhibitors of hepatitis C virus” (priority 2010, dated 2015).)
